Reference: paper PMC9865188 (Pharmaceutics, 2023)
Read-outs that look alike come from different tables or passages of the source.

Legend:
[1] = Pharmacokinetic study in Sprague Dawley rats (oral gavage); type: in vivo; details: for concentration at 15 min / Cmax / AUC(0-t) / bioavailability / half-life: male, rat, plasma; for concentration at 15 min / Cmax: Sprague Dawley; for concentration at 15 min: oral, Etoposide C15min; for Cmax / AUC(0-t) / bioavailability / half-life: po; for Cmax: Etoposide Cmax; for AUC(0-t) / bioavailability / half-life: Sprague-Dawley; for AUC(0-t): Etoposide AUC0–6h; for bioavailability: Etoposide bioavailability; for half-life: Etoposide t½
Procedure: The study was conducted according to the European Convention for the Protection of Vertebrate Animals used for Experimental and other Scientific Purposes (ETS no. 123) and Belgian law controlling the experiments on animals (Royal Decree of 29 May 2013 for the protection of laboratory animals). Animals were allowed minimum five days to acclimatise upon arrival from the supplier, and they were housed in polysulphone cages (58 × 52 × 20 cm) in groups of six provided with wooden sticks for enrichment. Animals had free access to Safe 04 Maintenance Diet (Safe, Rosenberg, Germany) and water during acclimatisation and during the study.
Male Sprague Dawley rats (Charles River, Dortmund, Germany) weighing 293–358 g were randomly assigned into six groups of six animals. Formulations were prepared as clear solutions in 40% v/v ethanol–water and 10 mL/kg was administered to each animal by oral gavage. […] Plasma samples were taken by tail vein puncture with a needle followed by collection in 32–64 µL micro haematocrit tubes (Vitrex Medical, Herlev, Denmark) at times 15, 30, and 45 min and 1, 2, 3, 4, and 6 h. Samples were centrifuged, and plasma was transferred into 10 µL end-to-end pipettes (Vitrex Medical, Herlev, Denmark) and immediately frozen at −80 °C until bioanalysis. Immediately after the study, animals were euthanised according to the principles of euthanasia stated in the AVMA Guidelines for the Euthanasia of Animals (American Veterinary Medical Association, 2020). Plasma samples were analysed by a previously described qualified LC-MS/MS method.
Pharmacokinetic parameters were calculated individually for each animal subject and pooled for statistical analysis. The plasma concentration at 15 min (C15min) was reported as an average of the plasma concentration of the six animals in each group. […] Elimination rate constants (ke) were calculated by linear regression of the linear part of the ln(plasma concentration) versus time profiles, and plasma half-life (t½) was calculated from ke:(3) t½=ln (2)/ke

[2] = cited from earlier work
[3] = target: P-gp (Homo sapiens, UniProt P08183); test: Transcellular etoposide permeability across Caco-2 cell monolayers; details: Caco-2, spike method, 2.5 nM zosuquidar vs 2.5 nM zosuquidar + 0.2 µM polysorbate 20
Procedure: All were carried out in four independent cell passages. Transcellular permeability studies were performed in HEPES HBSS pH 7.4 and were assessed in the basolateral (B) to apical (A) and A–B direction for series (1) and (3) and in the B–A direction for series (2). […] Test solutions were either prepared by conventional serial dilution for series (1)–(2) or by a spike method for series (3).
Before the transport experiment, growth medium was removed from the cells by vacuum suction (Vacusip, Integra Biosciences, NH, USA), followed by a 10 min equilibration in HEPES HBSS pH 7.4 on a Talboys 1000 MP incubating microplate shaker (Troemner, NJ, USA, 220 rpm, 37 °C). Then, the buffer was removed, and donor and acceptor solutions were added, with a total of 500 and 1000 µL to the A and B compartment, respectively. […] At 120 min, a sample was taken from the donor compartment and diluted in mobile phase. Samples were analysed by HPLC-FL, and for series (2) and (3), 50 µL sample was transferred to a black, clear-bottom 96-well plate for lucifer yellow quantification.
Papp was calculated by dividing the flux with the measured donor concentration.

[4] = group B: etoposide 20 mg/kg + zosuquidar 0.63 mg/kg + 1.0% v/v polysorbate 20 oral
[5] = group D: etoposide 20 mg/kg + zosuquidar 2.0 mg/kg + 5.0% v/v polysorbate 20 oral
[6] = group E: etoposide 20 mg/kg + zosuquidar 6.3 mg/kg + 5.0% v/v polysorbate 20 oral
[7] = group F: etoposide 20 mg/kg + zosuquidar 6.3 mg/kg + 10% v/v polysorbate 20 oral
[8] = 20 mg/kg, group A: etoposide 20 mg/kg + 1.0% v/v polysorbate 20 oral
[9] = 20 mg/kg, group C: etoposide 20 mg/kg + 5.0% v/v polysorbate 20 oral
[10] = 20 mg/kg, group B: etoposide 20 mg/kg + zosuquidar 0.63 mg/kg + 1.0% v/v polysorbate 20 oral
[11] = 20 mg/kg, group D: etoposide 20 mg/kg + zosuquidar 2.0 mg/kg + 5.0% v/v polysorbate 20 oral
[12] = 20 mg/kg, group E: etoposide 20 mg/kg + zosuquidar 6.3 mg/kg + 5.0% v/v polysorbate 20 oral
[13] = 20 mg/kg, group F: etoposide 20 mg/kg + zosuquidar 6.3 mg/kg + 10% v/v polysorbate 20 oral
[14] = group D*: etoposide 20 mg/kg oral alone
[15] = group F*: etoposide 20 mg/kg + zosuquidar 0.63 mg/kg oral
[16] = group G*: etoposide 20 mg/kg + zosuquidar 2.0 mg/kg oral
[17] = group H*: etoposide 20 mg/kg + zosuquidar 6.3 mg/kg oral

P-gp, sequence (P08183 whole entry): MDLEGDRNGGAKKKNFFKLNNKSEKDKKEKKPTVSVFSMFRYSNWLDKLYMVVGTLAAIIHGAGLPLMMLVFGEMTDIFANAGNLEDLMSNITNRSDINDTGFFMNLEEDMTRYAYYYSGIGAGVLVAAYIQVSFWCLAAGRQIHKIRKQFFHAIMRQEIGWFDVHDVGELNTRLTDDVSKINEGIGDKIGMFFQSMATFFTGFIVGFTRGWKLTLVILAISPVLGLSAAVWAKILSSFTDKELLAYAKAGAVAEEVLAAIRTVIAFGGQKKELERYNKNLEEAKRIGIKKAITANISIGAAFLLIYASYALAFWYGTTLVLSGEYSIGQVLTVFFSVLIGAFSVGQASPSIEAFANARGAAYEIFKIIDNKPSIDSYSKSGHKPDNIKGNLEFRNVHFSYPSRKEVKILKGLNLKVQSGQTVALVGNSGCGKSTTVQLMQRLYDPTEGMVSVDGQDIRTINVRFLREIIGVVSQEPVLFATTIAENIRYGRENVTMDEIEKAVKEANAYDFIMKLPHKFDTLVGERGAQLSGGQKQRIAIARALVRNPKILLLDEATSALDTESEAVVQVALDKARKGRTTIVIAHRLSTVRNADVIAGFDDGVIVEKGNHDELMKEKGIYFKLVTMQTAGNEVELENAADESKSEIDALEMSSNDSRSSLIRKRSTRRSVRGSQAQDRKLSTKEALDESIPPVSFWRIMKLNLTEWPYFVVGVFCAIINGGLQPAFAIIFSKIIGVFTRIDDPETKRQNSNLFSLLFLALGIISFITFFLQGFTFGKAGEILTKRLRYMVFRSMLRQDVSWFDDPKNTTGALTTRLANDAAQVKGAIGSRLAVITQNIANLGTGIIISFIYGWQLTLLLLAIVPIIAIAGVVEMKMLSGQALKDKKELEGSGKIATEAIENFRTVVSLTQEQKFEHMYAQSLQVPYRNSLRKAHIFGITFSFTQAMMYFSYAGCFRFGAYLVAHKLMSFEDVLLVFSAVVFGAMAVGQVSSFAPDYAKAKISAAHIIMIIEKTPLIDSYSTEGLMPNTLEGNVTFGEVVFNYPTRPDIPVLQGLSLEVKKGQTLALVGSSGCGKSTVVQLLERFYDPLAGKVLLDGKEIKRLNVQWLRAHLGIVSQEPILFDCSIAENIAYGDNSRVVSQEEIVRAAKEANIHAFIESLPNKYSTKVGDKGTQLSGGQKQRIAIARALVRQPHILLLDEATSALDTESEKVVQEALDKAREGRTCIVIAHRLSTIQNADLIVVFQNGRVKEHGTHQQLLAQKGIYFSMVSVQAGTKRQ

**Q.** Which “Etoposide tmax, median [Q1; Q3]” value ([1]; group A: etoposide 20 mg/kg + 1.0% v/v polysorbate 20 oral) does the source give for `COc1cc([C@@H]2c3cc4c(cc3[C@@H](O[C@@H]3O[C@@H]5CO[C@@H](C)O[C@H]5[C@H](O)[C@H]3O)[C@H]3COC(=O)[C@H]23)OCO4)cc(OC)c1O` [etoposide] here?
**A.** 30 [30;34] min

**Q.** What about the “Etoposide tmax, median [Q1; Q3]” value [1, 4] of the same compound?
**A.** 45 [30;49] min

**Q.** And the “Etoposide tmax, median [Q1; Q3]” value ([1]; group C: etoposide 20 mg/kg + 5.0% v/v polysorbate 20 oral)?
**A.** 30 [26;30] min

**Q.** What about the “Etoposide tmax, median [Q1; Q3]” value [1, 5] of the same compound?
**A.** 38 [30;60] min

**Q.** And the “Etoposide tmax, median [Q1; Q3]” value [1, 6]?
**A.** 45 [41;49] min

**Q.** And the “Etoposide tmax, median [Q1; Q3]” value [1, 7]?
**A.** 45 [41;60] min

**Q.** And the “Etoposide t½” value [1, 7]?
**A.** 56.4 ± 2.2 min

**Q.** What about the concentration at 15 min [1, 8] of the same compound?
**A.** 404 ± 58 ng/mL

**Q.** And the concentration at 15 min [1, 9]?
**A.** 1130 ± 140 ng/mL

**Q.** What about the concentration at 15 min [1, 4] of the same compound?
**A.** 1140 ± 120 ng/mL

**Q.** And the concentration at 15 min [1, 5]?
**A.** 1010 ± 100 ng/mL

**Q.** And the concentration at 15 min [1, 6]?
**A.** 923 ± 103 ng/mL

**Q.** And the concentration at 15 min [1, 7]?
**A.** 579 ± 52 ng/mL

**Q.** What about the Cmax [1, 8] of the same compound?
**A.** 711 ± 86 ng/mL

**Q.** And the Cmax [1, 10]?
**A.** 1750 ± 160 ng/mL

**Q.** What about the Cmax [1, 9] of the same compound?
**A.** 1220 ± 140 ng/mL

**Q.** What about the Cmax [1, 11] of the same compound?
**A.** 1430 ± 180 ng/mL

**Q.** And the Cmax [1, 12]?
**A.** 1300 ± 130 ng/mL

**Q.** And the Cmax [1, 13]?
**A.** 1020 ± 70 ng/mL

**Q.** And the AUC(0-t) [1, 8]?
**A.** 921 ± 84 ng·h/mL

**Q.** And the AUC(0-t) [1, 10]?
**A.** 2610 ± 240 ng·h/mL

**Q.** And the AUC(0-t) [1, 9]?
**A.** 1970 ± 240 ng·h/mL

**Q.** What about the AUC(0-t) [1, 11] of the same compound?
**A.** 3080 ± 380 ng·h/mL

**Q.** And the AUC(0-t) [1, 12]?
**A.** 2800 ± 200 ng·h/mL

**Q.** And the AUC(0-t) [1, 13]?
**A.** 2310 ± 160 ng·h/mL

**Q.** And the bioavailability [1, 8]?
**A.** 5.35 ± 0.49%

**Q.** And the bioavailability [1, 10]?
**A.** 15.2 ± 1.4%

**Q.** What about the bioavailability [1, 9] of the same compound?
**A.** 11.5 ± 1.4%

**Q.** And the bioavailability [1, 11]?
**A.** 17.9 ± 2.2%

**Q.** And the bioavailability [1, 12]?
**A.** 16.3 ± 1.2%

**Q.** And the bioavailability [1, 13]?
**A.** 13.4 ± 1%

**Q.** What about the half-life [1, 8] of the same compound?
**A.** 42.4 ± 2.4 min

**Q.** What about the half-life [1, 10] of the same compound?
**A.** 37.2 ± 1.2 min

**Q.** And the half-life [1, 9]?
**A.** 43.3 ± 2 min

**Q.** And the half-life [1, 11]?
**A.** 52.9 ± 2.8 min

**Q.** What about the half-life [1, 12] of the same compound?
**A.** 54.7 ± 4.5 min

**Q.** And the “Etoposide AUC0–6h” value [2, 14]?
**A.** 947 ± 156 ng·h/mL

**Q.** What about the “Etoposide Cmax” value [2, 14] of the same compound?
**A.** 390 ± 84 ng/mL

**Q.** And the Etoposide bioavailability [2, 14]?
**A.** 5.51 ± 0.91%

**Q.** What about the “Etoposide tmax, median [Q1; Q3]” value [2, 14] of the same compound?
**A.** 15 [15;30] min

**Q.** What about the “Etoposide t½” value [2, 14] of the same compound?
**A.** 80.8 ± 13.2 min

**Q.** What about the “Etoposide AUC0–6h” value [2, 15] of the same compound?
**A.** 2470 ± 440 ng·h/mL

**Q.** What about the “Etoposide Cmax” value [2, 15] of the same compound?
**A.** 1590 ± 290 ng/mL

**Q.** What about the Etoposide bioavailability [2, 15] of the same compound?
**A.** 14.4 ± 2.5%

**Q.** And the “Etoposide tmax, median [Q1; Q3]” value [2, 15]?
**A.** 45 [15;45] min

**Q.** What about the “Etoposide t½” value [2, 15] of the same compound?
**A.** 39.3 ± 3.0 min

**Q.** What about the “Etoposide AUC0–6h” value [2, 16] of the same compound?
**A.** 3860 ± 500 ng·h/mL

**Q.** What about the “Etoposide Cmax” value [2, 16] of the same compound?
**A.** 2240 ± 540 ng/mL

**Q.** And the Etoposide bioavailability [2, 16]?
**A.** 22.4 ± 2.9%

**Q.** And the “Etoposide tmax, median [Q1; Q3]” value [2, 16]?
**A.** 38 [26;60] min

**Q.** And the “Etoposide t½” value [2, 16]?
**A.** 51.4 ± 2.4 min

**Q.** And the “Etoposide AUC0–6h” value [2, 17]?
**A.** 4270 ± 470 ng·h/mL

**Q.** And the “Etoposide Cmax” value [2, 17]?
**A.** 2110 ± 200 ng/mL

**Q.** And the Etoposide bioavailability [2, 17]?
**A.** 24.8 ± 2.7%

**Q.** What about the “Etoposide tmax, median [Q1; Q3]” value [2, 17] of the same compound?
**A.** 45 [15;60] min

**Q.** What about the “Etoposide t½” value [2, 17] of the same compound?
**A.** 56.5 ± 4.8 min

**Q.** And the “difference in mean etoposide Papp” value [3]?
**A.** no difference
